Measured values published in patent US8192962B2, “Processes for detecting toxic substances” (Daikin Industries, Ltd., priority 2001, dated 2012).

Tested on: Transport facilitation protein genes
Assay: DNA chip mRNA expression in yeast, transport facilitation protein genes (Table 5)
Format: cell-based, Saccharomyces cerevisiae S288C
Procedure, shortened: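 Value is the scanned fluorescence intensity ratio of exposed versus chemical-free cells. Log-phase S288C yeast in YPD at 25° C. received one toxic substance for two hours, dosed to slow growth without killing; Cy3/Cy5-labeled cDNA from oligo-dT-purified mRNA was hybridized to a whole-genome chip at 65° C.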

## [Cl][Pb][Cl] [(4), PbCl2]
Yeast gene YGR260W
  The level of expressed mRNA in the presence of chemical substance/The level of expressed mRNA in the absence of chemical substance: 0.8
Yeast gene YGR281W
  The level of expressed mRNA in the presence of chemical substance/The level of expressed mRNA in the absence of chemical substance: 2.2
Yeast gene YHL035C
  The level of expressed mRNA in the presence of chemical substance/The level of expressed mRNA in the absence of chemical substance: 1.9
Yeast gene YHL040C
  The level of expressed mRNA in the presence of chemical substance/The level of expressed mRNA in the absence of chemical substance: 0.4
Yeast gene YHL047C
  The level of expressed mRNA in the presence of chemical substance/The level of expressed mRNA in the absence of chemical substance: 1.0
Yeast gene YHR026W
  The level of expressed mRNA in the presence of chemical substance/The level of expressed mRNA in the absence of chemical substance: 1.0
Yeast gene YHR092C
  The level of expressed mRNA in the presence of chemical substance/The level of expressed mRNA in the absence of chemical substance: 2.5
Yeast gene YHR094C
  The level of expressed mRNA in the presence of chemical substance/The level of expressed mRNA in the absence of chemical substance: 1.6
Yeast gene YHR175W
  The level of expressed mRNA in the presence of chemical substance/The level of expressed mRNA in the absence of chemical substance: 1.5
Yeast gene YIL006W
  The level of expressed mRNA in the presence of chemical substance/The level of expressed mRNA in the absence of chemical substance: 2.9
Yeast gene YIL022W
  The level of expressed mRNA in the presence of chemical substance/The level of expressed mRNA in the absence of chemical substance: 1.6
Yeast gene YIL056W
  The level of expressed mRNA in the presence of chemical substance/The level of expressed mRNA in the absence of chemical substance: 1.4
Yeast gene YIL088C
  The level of expressed mRNA in the presence of chemical substance/The level of expressed mRNA in the absence of chemical substance: 1.3
Yeast gene YJL034W
  The level of expressed mRNA in the presence of chemical substance/The level of expressed mRNA in the absence of chemical substance: 0.8
Yeast gene YJL212C
  The level of expressed mRNA in the presence of chemical substance/The level of expressed mRNA in the absence of chemical substance: 0.5
Yeast gene YJL219W
  The level of expressed mRNA in the presence of chemical substance/The level of expressed mRNA in the absence of chemical substance: 1.6
Yeast gene YJR077C
  The level of expressed mRNA in the presence of chemical substance/The level of expressed mRNA in the absence of chemical substance: 1.6
Yeast gene YJR106W
  The level of expressed mRNA in the presence of chemical substance/The level of expressed mRNA in the absence of chemical substance: 1.1
Yeast gene YJR121W
  The level of expressed mRNA in the presence of chemical substance/The level of expressed mRNA in the absence of chemical substance: 1.0
Yeast gene YKL016C
  The level of expressed mRNA in the presence of chemical substance/The level of expressed mRNA in the absence of chemical substance: 1.7
Yeast gene YKL146W
  The level of expressed mRNA in the presence of chemical substance/The level of expressed mRNA in the absence of chemical substance: 0.9
Yeast gene YKR039W
  The level of expressed mRNA in the presence of chemical substance/The level of expressed mRNA in the absence of chemical substance: 1.7
Yeast gene YKR067W
  The level of expressed mRNA in the presence of chemical substance/The level of expressed mRNA in the absence of chemical substance: 2.5
Yeast gene YLL028W
  The level of expressed mRNA in the presence of chemical substance/The level of expressed mRNA in the absence of chemical substance: 0.5
Yeast gene YLR081W
  The level of expressed mRNA in the presence of chemical substance/The level of expressed mRNA in the absence of chemical substance: 3.6
Yeast gene YLR295C
  The level of expressed mRNA in the presence of chemical substance/The level of expressed mRNA in the absence of chemical substance: 1.7
Yeast gene YLR348C
  The level of expressed mRNA in the presence of chemical substance/The level of expressed mRNA in the absence of chemical substance: 1.2
Yeast gene YLR378C
  The level of expressed mRNA in the presence of chemical substance/The level of expressed mRNA in the absence of chemical substance: 0.5
Yeast gene YMR011W
  The level of expressed mRNA in the presence of chemical substance/The level of expressed mRNA in the absence of chemical substance: 5.5
Yeast gene YMR162C
  The level of expressed mRNA in the presence of chemical substance/The level of expressed mRNA in the absence of chemical substance: 2.0
Yeast gene YMR203W
  The level of expressed mRNA in the presence of chemical substance/The level of expressed mRNA in the absence of chemical substance: 1.4
Yeast gene YNL055C
  The level of expressed mRNA in the presence of chemical substance/The level of expressed mRNA in the absence of chemical substance: 2.0
Yeast gene YNL259C
  The level of expressed mRNA in the presence of chemical substance/The level of expressed mRNA in the absence of chemical substance: 1.2
Yeast gene YNR072W
  The level of expressed mRNA in the presence of chemical substance/The level of expressed mRNA in the absence of chemical substance: 0.7
Yeast gene YOL119C
  The level of expressed mRNA in the presence of chemical substance/The level of expressed mRNA in the absence of chemical substance: 2.3
Yeast gene YOL156W
  The level of expressed mRNA in the presence of chemical substance/The level of expressed mRNA in the absence of chemical substance: 1.1
Yeast gene YOL163W
  The level of expressed mRNA in the presence of chemical substance/The level of expressed mRNA in the absence of chemical substance: 3.3
Yeast gene YOR035C
  The level of expressed mRNA in the presence of chemical substance/The level of expressed mRNA in the absence of chemical substance: 1.2
Yeast gene YOR130C
  The level of expressed mRNA in the presence of chemical substance/The level of expressed mRNA in the absence of chemical substance: 1.0
Yeast gene YOR153W
  The level of expressed mRNA in the presence of chemical substance/The level of expressed mRNA in the absence of chemical substance: 1.1
Yeast gene YOR273C
  The level of expressed mRNA in the presence of chemical substance/The level of expressed mRNA in the absence of chemical substance: 1.0
Yeast gene YOR316C
  The level of expressed mRNA in the presence of chemical substance/The level of expressed mRNA in the absence of chemical substance: 1.5
Yeast gene YOR328W
  The level of expressed mRNA in the presence of chemical substance/The level of expressed mRNA in the absence of chemical substance: 1.0
Yeast gene YOR332W
  The level of expressed mRNA in the presence of chemical substance/The level of expressed mRNA in the absence of chemical substance: 1.0
Yeast gene YOR348C
  The level of expressed mRNA in the presence of chemical substance/The level of expressed mRNA in the absence of chemical substance: 2.0
Yeast gene YPL036W
  The level of expressed mRNA in the presence of chemical substance/The level of expressed mRNA in the absence of chemical substance: 0.9
Yeast gene YPL134C
  The level of expressed mRNA in the presence of chemical substance/The level of expressed mRNA in the absence of chemical substance: 1.6
Yeast gene YPL271W
  The level of expressed mRNA in the presence of chemical substance/The level of expressed mRNA in the absence of chemical substance: 1.2
Yeast gene YPR192W
  The level of expressed mRNA in the presence of chemical substance/The level of expressed mRNA in the absence of chemical substance: 5.0
Yeast gene YPR194C
  The level of expressed mRNA in the presence of chemical substance/The level of expressed mRNA in the absence of chemical substance: 2.9
